Where a name gives a salt, the structure may show the parent alone.

Among the data in ChEMBL document CHEMBL3045479, “Synthesis and anti-cancer activity of some novel C-17 analogs of ursolic and oleanolic acids” (2013) are inhibition of growth values, retold here.

What all share (format): functional
For one assay, the system named is COLO 205. The assay is described as follows: Growth inhibition of Homo sapiens (human) COLO205 cells at 10 uM after 48 hr by SRB assay. The conditions noted are these: COLO 205, 48 h, read-out: GI. (The SRB assay estimates cell density from bound dye.)
The test system of the next assay is THP-1. The assay is described as follows: Growth inhibition of Homo sapiens (human) THP1 cells at 10 uM after 48 hr by SRB assay. The conditions noted are these: THP-1, 48 h, read-out: GI.
A further assay relates to A549. The assay is described as follows: Growth inhibition of Homo sapiens (human) A549 cells at 10 uM after 48 hr by SRB assay. The conditions noted are these: A549, 48 h, read-out: GI.
The subject of a further assay is PC-3. The experiment in a line: Growth inhibition of Homo sapiens (human) PC3 cells at 10 uM after 48 hr by SRB assay. The conditions noted are these: PC-3, 48 h, read-out: GI.
A further assay relates to IMR-32. The assay is described as follows: Growth inhibition of Homo sapiens (human) IMR32 cells at 10 uM after 48 hr by SRB assay. The following applies: IMR-32, 48 h, read-out: GI.
A further assay relates to SW-620. The experiment in a line: Growth inhibition of Homo sapiens (human) SW620 cells at 10 uM after 48 hr by SRB assay. The conditions noted are these: SW-620, 48 h, read-out: GI.
A further assay deals with SiHa. The experiment in a line: Growth inhibition of Homo sapiens (human) SiHa cells at 10 uM after 48 hr by SRB assay. The conditions noted are these: read-out: GI.
For a further assay, the system named is HeLa. The assay is described as follows: Growth inhibition of Homo sapiens (human) HeLa cells at 10 uM after 48 hr by SRB assay. The following applies: read-out: GI.

Take `C[C@H]1[C@H](C)CC[C@]2(C(=O)OCCBr)CC[C@]3(C)C(=CC[C@@H]4[C@@]5(C)CC[C@H](O)C(C)(C)[C@@H]5CC[C@]43C)[C@H]12`: the inhibition of growth at 10 µM in the assay on COLO 205 is 12%; with THP-1, 54%; with A549, 28%; in the assay on PC-3 it was 23%.

Regarding `CC(C)=CCOC(=O)[C@]12CC[C@@H](C)[C@H](C)[C@H]1C1=CC[C@@H]3[C@@]4(C)CC[C@H](O)C(C)(C)[C@@H]4CC[C@@]3(C)[C@]1(C)CC2`, the inhibition of growth at 10 µM turned out to be 19% in the assay on IMR-32; 0% with COLO 205; 2% in the assay on SW-620; 21% in the assay on SiHa; 24% in the assay with HeLa; 12% in the assay on A549.

On to `C=CCOC(=O)[C@]12CCC(C)(C)C[C@H]1C1=CC[C@@H]3[C@@]4(C)CC[C@H](O)C(C)(C)[C@@H]4CC[C@@]3(C)[C@]1(C)CC2` [3BETA-HYDROXY-OLEAN-12-EN-28-ALLYLATE], for which the inhibition of growth at 10 µM with IMR-32 came to 16%; with COLO 205 it was 0%; with SW-620, 1%; with SiHa, 15%; in the assay on HeLa, 0%; in the assay on A549 it was 31%.

With `COC(=O)COC(=O)[C@]12CCC(C)(C)C[C@H]1C1=CC[C@@H]3[C@@]4(C)CC[C@H](O)C(C)(C)[C@@H]4CC[C@@]3(C)[C@]1(C)CC2` [3BETA-HYDROXY-OLEAN-12-EN-28-METHYL ACETOACETATE], the inhibition of growth at 10 µM with IMR-32 was 18%; in the assay with COLO 205, 2%; in the assay with SW-620 it was 4%; in the assay on SiHa, 19%; in the assay with HeLa, 13%; in the assay with A549 it was 25%.

`CC(C)=CCOC(=O)[C@]12CCC(C)(C)C[C@H]1C1=CC[C@@H]3[C@@]4(C)CC[C@H](O)C(C)(C)[C@@H]4CC[C@@]3(C)[C@]1(C)CC2` [3BETA-HYDROXY-OLEAN-12-EN-28-PRENYLATE]: the inhibition of growth at 10 µM with IMR-32 stood at 16%; in the assay with COLO 205, 0%; with SW-620, 13%; in the assay with SiHa, 36%; in the assay with HeLa it was 5%; in the assay on A549, 25%.

Turning to `C#CCOC(=O)[C@]12CCC(C)(C)C[C@H]1C1=CC[C@@H]3[C@@]4(C)CC[C@H](O)C(C)(C)[C@@H]4CC[C@@]3(C)[C@]1(C)CC2` [3BETA-HYDROXY-OLEN-12-EN-28-PROPARGYLATE], the inhibition of growth at 10 µM in the assay on IMR-32 is 16%; with COLO 205, 15%; in the assay with SW-620, 2%; in the assay on SiHa, 30%; with HeLa, 27%; in the assay with A549 it was 20%.

As to `C=CCOC(=O)[C@]12CC[C@@H](C)[C@H](C)[C@H]1C1=CC[C@@H]3[C@@]4(C)CC[C@H](O)C(C)(C)[C@@H]4CC[C@@]3(C)[C@]1(C)CC2` [3BETA-HYDROXY-URS-12-EN-28-ALLYLATE], the inhibition of growth at 10 µM in the assay with IMR-32 turned out to be 20%; in the assay with COLO 205 it was 0%; in the assay with SW-620 it was 0%; with SiHa, 25%; in the assay on HeLa, 0%; in the assay with A549, 19%.

Consider `COC(=O)COC(=O)[C@]12CC[C@@H](C)[C@H](C)[C@H]1C1=CC[C@@H]3[C@@]4(C)CC[C@H](O)C(C)(C)[C@@H]4CC[C@@]3(C)[C@]1(C)CC2` [3BETA-HYDROXY-URS-12-EN-28-METHYL ACETOACETATE], for which the inhibition of growth at 10 µM amounted to 18% in the assay with IMR-32; 0% with COLO 205; 0% with SW-620; 24% with SiHa; 11% in the assay with HeLa; 23% in the assay on A549.

In the case of `C#CCOC(=O)[C@]12CC[C@@H](C)[C@H](C)[C@H]1C1=CC[C@@H]3[C@@]4(C)CC[C@H](O)C(C)(C)[C@@H]4CC[C@@]3(C)[C@]1(C)CC2` [3BETA-HYDROXY-URS-12-EN-28-PROPARGYLATE], the inhibition of growth at 10 µM stood at 11% in the assay on IMR-32; 0% in the assay with COLO 205; 0% in the assay on SW-620; 4% in the assay with SiHa; 0% in the assay on HeLa; 24% in the assay on A549.

On to `COc1cccc2c1C(=O)c1c(O)c3c(c(O)c1C2=O)C[C@@](O)(C(=O)CO)C[C@@H]3O[C@H]1C[C@H](N)[C@H](O)[C@H](C)O1` [DOXORUBICIN HYDROCHLORIDE], for which the inhibition of growth at 10 µM in the assay on IMR-32 was 82%; in the assay with COLO 205, 89%; in the assay with SW-620, 38%; with HeLa, 58%; in the assay with A549, 50%.

As for `O=c1[nH]cc(F)c(=O)[nH]1` [FLUOROURACIL], the inhibition of growth at 10 µM in the assay with IMR-32 came to 29%; in the assay with COLO 205, 47%; in the assay with SW-620 it was 42%; in the assay on SiHa, 38%; in the assay on HeLa it was 36%; in the assay with THP-1, 69%. The inhibition of growth at 10 µM in the assay with A549 came to 30%.

Turning to `COC(=O)[C@]12CCC(C)(C)C[C@H]1C1=CC[C@@H]3[C@@]4(C)CC[C@H](O)C(C)(C)[C@@H]4CC[C@@]3(C)[C@]1(C)CC2` [METHYL OLEANOLATE], the inhibition of growth at 10 µM in the assay with IMR-32 is 55%; with COLO 205 it was 0%; with SW-620, 8%; in the assay on SiHa, 21%; with HeLa, 18%; in the assay on A549, 48%.

`COC(=O)[C@]12CC[C@@H](C)[C@H](C)[C@H]1C1=CC[C@@H]3[C@@]4(C)CC[C@H](O)C(C)(C)[C@@H]4CC[C@@]3(C)[C@]1(C)CC2` [METHYL URSOLATE]: the inhibition of growth at 10 µM in the assay with IMR-32 turned out to be 11%; in the assay with COLO 205 it was 0%; with SW-620, 0%; with SiHa it was 21%; in the assay with HeLa it was 2%; with A549, 20%.

As for `CO[C@@]12[C@H](COC(N)=O)C3=C(C(=O)C(C)=C(N)C3=O)N1C[C@@H]1N[C@@H]12` [MITOMYCIN], the inhibition of growth at 10 µM in the assay on PC-3 is 61%.

For the molecule `CC1(C)CC[C@]2(C(=O)O)CC[C@]3(C)C(=CC[C@@H]4[C@@]5(C)CC[C@H](O)C(C)(C)[C@@H]5CC[C@]43C)[C@@H]2C1` [OLEANOLIC_ACID], the inhibition of growth at 10 µM turned out to be 22% in the assay on IMR-32; 33% in the assay on COLO 205; 24% in the assay on SW-620; 3% in the assay with SiHa; 26% in the assay with HeLa; 24% in the assay with A549.

In the case of `CC(=O)O[C@H]1C(=O)[C@@]2(C)[C@H]([C@H](OC(=O)c3ccccc3)[C@]3(O)C[C@H](OC(=O)[C@H](O)[C@@H](NC(=O)c4ccccc4)c4ccccc4)C(C)=C1C3(C)C)[C@]1(OC(C)=O)CO[C@@H]1C[C@@H]2O` [PACLITAXEL], the inhibition of growth at 10 µM with IMR-32 was found to be 30%; in the assay with COLO 205 it was 67%; with SW-620, 36%; in the assay with HeLa it was 45%; in the assay with A549 it was 44%.
